Converted amounts (≈) assume the structure as drawn. The source made the active and inactive calls. The calls are words filed in the database; no cut-off is given here.
Assays:
[1] = Reduction in cMyc expression in human COLO 320HSR cells incubated for 24 hrs by HTRF assay; format: functional, cell-based
[2] = Decrease in nascent MYC mRNA level in human COLO 320HSR cells at 2 uM incubated for 75 mins by qRT-PCR analysis; format: functional; settings: 1.25 h
COLO-320-HSR [3] = experiment: Effect on MCL-1 protein level in human COLO 320HSR cells incubated for 24 hrs by Western blot analysis; format: functional, cell-based
COLO-320-HSR [4] = experiment: Decrease in MYC mRNA level in human COLO 320HSR cells incubated for 6 hrs by qRT-PCR analysis; format: functional, cell-based
COLO-320-HSR [5] = experiment: Decrease in c-MYC protein level in human COLO 320HSR cells incubated for 24 hrs by Western blot analysis; format: functional, cell-based
[6] = Distribution coefficient, logD of the compound by chromatography; format: physicochemical; settings: octanol/water
[7] = Permeability of the compound across artificial membrane by AMP assay; format: ADME; settings: PAMPA; read-out: permeability
[8] = Solubility by CLND assay; format: physicochemical
[9] = Oral bioavailability in Han Wistar rat at 2 mg/kg by LC-MS/MS analysis; format: ADME, organism-based; settings: in vivo
[10] = AUC (0 to inf) in Han Wistar rat at 2 mg/kg, po by LC-MS/MS analysis; format: ADME, organism-based; design: time infinity, dose 2 mg/kg, route po; settings: in vivo
[11] = Half life in Han Wistar rat at 1 mg/kg, iv by LC-MS/MS analysis; format: ADME, organism-based; settings: in vivo
[12] = AUC (0 to inf) in CD1 mouse at 5 mg/kg, po by LC-MS/MS analysis; format: ADME, organism-based; design: time infinity, dose 5 mg/kg, route po; settings: in vivo
[13] = Clearance in Han Wistar rat at 1 mg/kg, iv by LC-MS/MS analysis; format: ADME, organism-based; settings: in vivo
[14] = Plasma protein binding in Han Wistar rat at 2 mg/kg, po by LC-MS/MS analysis; format: ADME, organism-based; settings: read-out: PPB (converted)
[15] = Cmax in Han Wistar rat at 2 mg/kg, po by LC-MS/MS analysis; format: ADME, organism-based; design: dose 2 mg/kg, route po; settings: in vivo
[16] = Oral bioavailability in CD1 mouse at 5 mg/kg by LC-MS/MS analysis; format: ADME, organism-based; settings: in vivo
[17] = Cmax in CD1 mouse at 5 mg/kg, po by LC-MS/MS analysis; format: ADME, organism-based; design: dose 5 mg/kg, route po; settings: in vivo
[18] = Volume of distribution at steady state in Han Wistar rat at 1 mg/kg, iv by LC-MS/MS analysis; format: ADME, organism-based; settings: in vivo, read-out: Vdss
[19] = Plasma protein binding in CD1 mouse at 5 mg/kg, po by LC-MS/MS analysis; format: ADME, organism-based; settings: read-out: PPB (converted)
[20] = Volume of distribution at steady state in Han Wistar rat at 0.54 mg/kg, iv by LC-MS/MS analysis; format: ADME, organism-based; settings: in vivo, read-out: Vdss
[21] = Clearance in Han Wistar rat at 0.54 mg/kg, iv by LC-MS/MS analysis; format: ADME, organism-based; settings: in vivo
[22] = Half life in Han Wistar rat at 0.54 mg/kg, iv by LC-MS/MS analysis; format: ADME, organism-based; settings: in vivo
[23] = Clearance in CD1 mouse at 0.51 mg/kg, iv by LC-MS/MS analysis; format: ADME, organism-based; settings: in vivo
[24] = Volume of distribution at steady state in CD1 mouse at 0.51 mg/kg, iv by LC-MS/MS analysis; format: ADME, organism-based; settings: in vivo, read-out: Vdss
[25] = Half life in CD1 mouse at 0.51 mg/kg, iv by LC-MS/MS analysis; format: ADME, organism-based; settings: in vivo
[26] = AUC (0 to t) in Han Wistar rat at 5.3 mg/kg, po by LC-MS/MS analysis; format: ADME, organism-based; design: dose 5.3 mg/kg, route po; settings: in vivo
[27] = Oral bioavailability in Han Wistar rat at 5.3 mg/kg by LC-MS/MS analysis; format: ADME, organism-based; settings: in vivo
[28] = Volume of distribution at steady state in Han Wistar rat at 1.9 mg/kg, iv by LC-MS/MS analysis; format: ADME, organism-based; settings: in vivo, read-out: Vdss
[29] = Half life in Han Wistar rat at 1.9 mg/kg, iv by LC-MS/MS analysis; format: ADME, organism-based; settings: in vivo
[30] = Clearance in Han Wistar rat at 1.9 mg/kg, iv by LC-MS/MS analysis; format: ADME, organism-based; settings: in vivo

SMILES	EC50 [1]	also measured
CCN(C)c1ccc(-c2nc3ccccc3n2Cc2ccn(CC)n2)cn1	3.98 µM	
CCNc1ccc(-c2nc3ccccc3n2Cc2ccn(CC)n2)cn1	39.8 µM	
CCN(CC)c1ccc(-c2nc3cc(C(=O)NCC4CC4)ccc3n2CCOC(C)(C)C)cn1	0.158 µM	
CCN(CC)c1ccc(-c2nc3cc(C(=O)NCCO)ccc3n2CCOC(C)(C)C)cn1	0.2 µM	
CCN(CC)c1ccc(-c2nc3ccccc3n2Cc2ccn(CC)n2)cn1	0.631 µM	
CCCN(CC)c1ccc(-c2nc3ccccc3n2Cc2ccn(CC)n2)cn1	1.58 µM	
CCN(CC)c1ccc(-c2nc3cc(C)ccc3n2Cc2ccn(CC)n2)cn1	0.631 µM	
CCN(CC)c1ccc(-c2nc3cc(C(=O)NC)ccc3n2Cc2ccn(CC)n2)cn1	0.126 µM	inhibition at 2 µM [2]: 50%; Activity (COLO-320-HSR [3]): inactive; Activity (COLO-320-HSR [4]): Dose-dependent effect; Activity (COLO-320-HSR [5]): Dose-dependent effect
CCOCCn1c(-c2ccc(N3[C@H](C)CC[C@@H]3C)nc2)nc2ccccc21	2 µM	
COc1cccc2nc(-c3ccc(N4[C@@H](C)CC[C@@H]4C)nc3)n(C[C@@H]3CN(C)C[C@H](C)O3)c12	0.0794 µM	chromatographic logD [6]: 6.8
CCN(CC)c1ccc(-c2nc3cc(C(N)=O)ccc3n2CCOC(C)(C)C)cn1	0.158 µM	
CCN(CC)c1ccc(-c2nc3ccccc3n2Cc2cccc(C)n2)cn1	2.51 µM	
CCN(CC)c1ccc(-c2nc3cccc(NC)c3n2Cc2ccn(C)n2)cn1	0.631 µM	
CCN(CC)c1ccc(-c2nc3ccccc3n2CCc2ccn(CC)n2)cn1	25.1 µM	
CCN(CC)c1ccc(-c2nc3ccccc3n2CCOC)cn1	2.51 µM	
CCN(CC)c1ccc(-c2nc3ccccc3n2Cc2ccn(CC)n2)cc1	25.1 µM	
CCOCCn1c(-c2ccc(N(CC)CC)nc2)nc2ccccc21	0.398 µM	
CCN(CC)c1ccc(-c2nc3cc(OC)ccc3n2Cc2ccn(CC)n2)cn1	0.794 µM	
CCN(CC)c1ccc(-c2nc3cc(C(=O)N(C)C)ccc3n2CCOC(C)(C)C)cn1	3.98 µM	
Cc1cccc2nc(-c3ccc(N4[C@@H](C)CC[C@@H]4C)nc3)n(Cc3ccn(C)n3)c12	0.1 µM	chromatographic logD [6]: 7; Papp [7]: 64 ×10⁻⁶ cm/s; solubility kinetic [8]: 309 µM (≈ 124 µg/mL)

SMILES	EC50 [1]	also measured
COc1cc(C(N)=O)c(F)c2nc(-c3ccc(N4[C@@H](C)CC[C@@H]4C)nc3)n(C[C@@H]3CN(C)CCO3)c12	0.02 µM	
C[C@H]1CN(C)C[C@@H](Cn2c(-c3ccc(N4[C@@H](C)CC[C@@H]4C)nc3)nc3ccccc32)O1	1.58 µM	chromatographic logD [6]: 5.6
CCNC(=O)c1cc(OC)c2c(c1)nc(-c1ccc(N3[C@@H](C)CC[C@@H]3C)nc1)n2C[C@@H]1CNCCO1		Papp [7]: 1.9 ×10⁻⁶ cm/s
CCN(CC)c1ccc(-c2nc3cccc(C#N)c3n2Cc2ccn(C)n2)cn1	2 µM	
CCOCCn1c(-c2ccc(N3[C@@H](C)CC[C@@H]3C)nc2)nc2cccc(OC)c21	0.0251 µM	
CCN(CC)c1ccc(-c2nc3c(C(N)=O)cccc3n2Cc2ccn(CC)n2)cn1	2 µM	
CCN(CC)c1ccc(-c2nc3cccc(C)c3n2Cc2ccn(C)n2)cn1	1 µM	
CCN(CC)c1ccc(-c2nc3cccc(OC)c3n2Cc2ccn(C)n2)cn1	0.0794 µM	
CCN(CC)c1ccc(-c2nc3ccccc3n2Cc2cc[nH]n2)cn1	2.51 µM	
CCCCn1c(-c2ccc(N(CC)CC)nc2)nc2ccccc21	12.6 µM	
CNC(=O)c1cc(OC)c2c(c1)nc(-c1ccc(N3[C@@H](C)CC[C@@H]3C)nc1)n2C[C@@H]1CN(C)CCO1		Papp [7]: 22 ×10⁻⁶ cm/s
CCOCCn1c(-c2ccc(N3CCC[C@H]3C)nc2)nc2ccccc21	12.6 µM	
CNC(=O)c1cc(OC)c2c(c1)nc(-c1ccc(N3[C@@H](C)CC[C@@H]3C)nc1)n2C[C@@H]1CNCCO1		Papp [7]: 1.3 ×10⁻⁶ cm/s
CCN(CC)c1ccc(-c2nc3ccccc3n2CCOC(C)(C)C)cn1	0.316 µM	
CCN(CC)c1ccc(-c2nc3ccccc3n2Cc2ccn(C)n2)cn1	0.251 µM	
COc1cccc2nc(-c3ccc(N4[C@@H](C)CC[C@@H]4C)nc3)n(C[C@@H]3CNCCO3)c12	0.126 µM	AUC(0-t) [26]: 1600 ng·h/mL; chromatographic logD [6]: 4; bioavailability [27]: 63%; Vd [28]: 6.3 L/kg; half-life [29]: 5.1 h; clearance [30]: 35 mL/min/kg
CCN(CC)c1ccc(-c2nc3c(Cl)cccc3n2Cc2ccn(CC)n2)cn1	0.2 µM	
CCOCCn1c(-c2ccc(N3CCC[C@@H]3C)nc2)nc2ccccc21	1.26 µM	
CCN(CC)c1ccc(-c2nc3cc(C#N)ccc3n2Cc2ccn(CC)n2)cn1	1 µM	

Continued by falling EC50 [1], values first:

EC50 [1]	SMILES	also measured
20 µM	C[C@@H]1CN(C)C[C@H](Cn2c(-c3ccc(N4[C@@H](C)CC[C@@H]4C)nc3)nc3ccccc32)O1	chromatographic logD [6]: 5.5
7.94 µM	CCN(CC)c1ccc(-c2cc3ccccc3n2Cc2ccn(CC)n2)cn1	
5.01 µM	CCn1ccc(Cn2c(-c3ccc(N4CCCC4)nc3)nc3ccccc32)n1	
3.16 µM	CCc1ncc(Cn2c(-c3ccc(N(CC)CC)nc3)nc3ccccc32)o1	
1.58 µM	CCn1ccc(Cn2c(-c3ccc(N4CCCC4C)nc3)nc3ccccc32)n1 (stereo not given)	
1.58 µM	CCc1nc(Cn2c(-c3ccc(N(CC)CC)nc3)nc3ccccc32)cs1	
1 µM	CCN(CC)c1ccc(-c2nc3c(C#N)cccc3n2Cc2ccn(CC)n2)cn1	
0.501 µM	CCN(CC)c1ccc(-c2nc3ccccc3n2Cc2coc(C)n2)cn1	
0.501 µM	CCc1nc(Cn2c(-c3ccc(N(CC)CC)nc3)nc3ccccc32)co1	
0.398 µM	CCOc1cccc2nc(-c3ccc(N(CC)CC)nc3)n(Cc3ccn(C)n3)c12	
0.316 µM	CCN(CC)c1ccc(-c2nc3c(C)cccc3n2Cc2ccn(CC)n2)cn1	
0.251 µM	CCN(CC)c1ccc(-c2nc3ccccc3n2CCOC(C)C)cn1	
0.251 µM	CCOCCn1c(-c2ccc(N3[C@@H](C)CC[C@@H]3C)nc2)nc2ccccc21	chromatographic logD [6]: 6.4; Papp [7]: 54.5 ×10⁻⁶ cm/s; solubility kinetic [8]: 254 µM (≈ 92.6 µg/mL)
0.158 µM	COc1cccc2nc(-c3ccc(N4[C@@H](C)CC[C@@H]4C)nc3)n(C[C@@H]3CNC[C@H](C)O3)c12	chromatographic logD [6]: 4.4
0.0794 µM	COc1cc(C(N)=O)cc2nc(-c3ccc(N4[C@@H](C)CC[C@@H]4C)nc3)n(C[C@@H]3CN(C)CCO3)c12	
0.0631 µM	CNC(=O)c1cc(OC)c2c(nc(-c3ccc(N4[C@@H](C)CC[C@@H]4C)nc3)n2C[C@@H]2CN(C)CCO2)c1F	bioavailability [9]: 83%; AUC(0-inf) [10]: 3160 ng·h/mL; half-life [11]: 4.3 h; AUC(0-inf) [12]: 784 ng·h/mL; clearance [13]: 11 mL/min/kg; fraction unbound [14]: 0.05; Cmax [15]: 180 ng/mL; bioavailability [16]: 26%; Cmax [17]: 205 ng/mL; Vd [18]: 2.8 L/kg; fraction unbound [19]: 0.07
0.0631 µM	COc1cc(C(N)=O)c(F)c2nc(-c3ccc(N4CCC[C@@H]4C)nc3)n(C[C@@H]3CN(C)CCO3)c12	bioavailability [9]: 100%; AUC(0-inf) [10]: 4300 ng·h/mL; clearance [23]: 24 mL/min/kg; half-life [11]: 6.4 h; AUC(0-inf) [12]: 1240 ng·h/mL; Vd [24]: 0.88 L/kg; half-life [25]: 0.55 h; clearance [13]: 14 mL/min/kg; fraction unbound [14]: 0.04; Cmax [15]: 500 ng/mL; bioavailability [16]: 43%; Cmax [17]: 380 ng/mL; Vd [18]: 2.5 L/kg; fraction unbound [19]: 0.03
0.0251 µM	COc1cccc2nc(-c3ccc(N4[C@@H](C)CC[C@@H]4C)nc3)n(Cc3ccn(C)n3)c12	Vd [20]: 6 L/kg; clearance [21]: 190 mL/min/kg; half-life [22]: 1 h

— ChEMBL document CHEMBL5055661, “Cell-Based Drug Discovery: Identification and Optimization of Small Molecules that Reduce c-MYC Protein Levels in Cells” (J Med Chem, 2021)
